From patent US20190327974A1, “SYNERGISTS FOR IMPROVED PESTICIDES” (priority 2017, published 2019)

Legend:
[1] = molecular target: Lucilia cuprina αE7 carboxylesterase (LcαE7) variant Gly137Asp (Lucilia cuprina, UniProt Q25252, G137D); test: Inhibition of Gly137Asp LcαE7, 4-nitrophenol butyrate hydrolysis; type: biochemical
Excerpt: The term “carboxyethylesterase” (CBE), refers to insect carboxylesterases from the alpha and beta and non-microsomal gene clusters, as defined in Oakeshott, Claudianos, Campbell, Newcomb and Russell, “Biochemical Genetic and Genomics of Insect Esterases”, pp 309-381, Chapter 10, Volume 5, 2005, Eds. Gilbert, Iatrou, Gill, published—Elsevier which is incorporated herein by reference. The αE7 CBE is an example of an alpha esterase, and is found in the sheep blowfly, Lucilia cuprina, with homologous genes being present in other insect pests. […]
His6-tagged proteins were expressed in BL21(DE3) E. coli (Invitrogen) at 26° C. for 18 hours. […] Protein concentration was determined by measuring the absorbance at 280 nm with an extinction coefficient calculated using the Protparam online server (Gasteiger, E. et al. Protein identification and analysis tools on the ExPASy server. Proteomics Protoc. Handb. 571-607 (2005). doi:10.1385/1-59259-890-0:571).
Inhibition of wild-type αE7 and the Gly137Asp αE7 variant was determined by a competition assay between the native-substrate analogue 4-nitrophenol butyrate (Sigma) and the boronic acid compounds. Initially, the Michalis constant (KM) with 4-nitrophenol butyrate was measured for both enzymes to determine an appropriate concentration of substrate for use in the competition assays. […]

[2] = tested on: Lucilia cuprina larvae, laboratory susceptible strain (LS); test: Blowfly larvae pupation bioassay, laboratory strain, diazinon; type: in vivo
Method: Inhibitor efficacy was determined by treating larvae with diazinon over a range of concentrations, in the presence or absence of the compounds at constant concentrations, and comparing pupation rates.
(§1) Two strains of L. cuprina were used: 1) a laboratory reference drug-susceptible strain, LS, derived from collections in the Australian Capital Territory over 40 years ago, with no history of exposure to insecticides; and 2) a field-collected strain, Tara, resistant to diazinon and diflubenzuron (Levot, G. W. & Sales, N. New high level resistance to diflubenzuron detected in the Australian sheep blowfly, Lucilia cuprina (Wiedemann) (Diptera: Calliphoridae). Gen. Appl. Entomol. 31, 43-46 (2002)). The LcαE7 gene was sequenced in each of the strains. Briefly, genomic DNA was prepared from 20 adult female flies from each strain using the DNeasy Blood and Tissue kit (Qiagen). PCR was performed with primers specific to the LcαE7 gene, and the product was cloned into a pGEM-T EASY vector (Promega). Eight clones of the susceptible strain and 10 clones of the resistant strain were sequenced using M13 forward and reverse primers.
Each experiment utilized 50 larvae at each diazinon/malathion concentration. Experiments were replicated three times for diazinon, and twice for malathion. The insecticidal effects were defined by measuring the pupation rate. […]

[3] = tested on: Lucilia cuprina larvae, field strain Tara resistant to diazinon; test: Lucilia cuprina larval bioassay (pupation rate), field strain; type: in vivo
Excerpt: Diazinon resistance is typically associated with the Gly137Asp mutation/resistance allele. […] This is consistent with previous results showing that duplications of the chromosomal region containing αE7 have occurred, meaning that resistant strains now carry copies of both WT and Glyl37Asp LcαE7.
as §1
The effect of compounds 2, 3, 5, 3.9 and 3.10 on the development of blowfly larvae in the presence of diazinon/malathion was assessed using a bioassay system in which larvae were allowed to develop from the first instar stage until pupation on cotton wool impregnated with diazinon/malathion over a range of concentrations, in the presence or absence of the compounds at constant concentrations (Kotze, A. C. et al. Histone deacetylase enzymes as drug targets for the control of the sheep blowfly, Lucilia cuprina. Int. J. Parasitol. Drugs Drug Resist. 5, 201-208 (2015)). Each experiment utilized 50 larvae at each diazinon/malathion concentration. Experiments were replicated three times for diazinon, and twice for malathion. The insecticidal effects were defined by measuring the pupation rate. […] Compounds were also without diazinon or malathion at 1 mg per assay.

[4] = tested on: panel of CBEs from various pests; test: Panel of insect CBEs as a whole; type: biochemical
Method: Assays were performed with 4-NPB as the substrate.

Lucilia cuprina αE7 carboxylesterase (LcαE7) variant Gly137Asp, sequence (Q25252 entry or part of it G137D): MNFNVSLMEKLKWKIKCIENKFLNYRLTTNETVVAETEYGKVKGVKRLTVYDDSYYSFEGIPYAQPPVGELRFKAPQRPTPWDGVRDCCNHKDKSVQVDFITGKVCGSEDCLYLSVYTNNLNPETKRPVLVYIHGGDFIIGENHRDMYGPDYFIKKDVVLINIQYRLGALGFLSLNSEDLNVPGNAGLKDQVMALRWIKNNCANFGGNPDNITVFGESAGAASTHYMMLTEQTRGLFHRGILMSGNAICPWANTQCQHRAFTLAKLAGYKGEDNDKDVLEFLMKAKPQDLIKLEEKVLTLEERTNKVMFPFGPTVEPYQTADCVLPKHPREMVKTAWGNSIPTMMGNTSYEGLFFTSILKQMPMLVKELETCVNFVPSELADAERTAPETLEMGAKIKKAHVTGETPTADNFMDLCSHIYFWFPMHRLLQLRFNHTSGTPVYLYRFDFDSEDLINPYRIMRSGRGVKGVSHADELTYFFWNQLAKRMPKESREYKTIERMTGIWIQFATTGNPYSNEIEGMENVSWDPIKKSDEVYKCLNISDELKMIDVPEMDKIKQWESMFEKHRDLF

Compound: OB(O)c1cc(Br)cc(N2CCCC2)c1 [Compound 3]
- inhibition of Gly137Asp LcαE7 [1]: poor inhibitor of Gly137Asp LcαE7

Compound: OB(O)c1cc(Br)cc(N2CCOCC2)c1 [Compound 3.1]
- reduction of diazinon EC50 compared to diazinon only control [2]: 5.7 fold

Compound: OB(O)c1cc(Br)cc(Oc2ccccc2)c1 [Compound 3.10, 3-Bromo-5-phenoxyfenylboronic acid]
- reduction of diazinon EC50 compared to a diazinon only control ([3]; field strain): 12 fold
- sensitivity of field strain to diazinon compared to the laboratory strain treated with only diazinon ([3]; fold more sensitive): 4 fold

Compound: OB(O)c1ccc(OCc2ccccc2F)c(Cl)c1 [Compound 5, 3-Chloro-4(2′-fluorobenzyloxy) phenylboronic acid]
- inhibition spectrum across CBEs [4]: efficiently inhibiting six different CBEs
